The conditions of data set [1]: also printed as 187° F.; cited from earlier work.
Data set [2] in a line: Solubility of prodiamine in N-methyl pyrrolidone liquid carrier. The note with it: N-methyl pyrrolidone as liquid carrier; heating and gentle mixing. Type of data set: physicochemical. An excerpt: For example, when N-methyl pyrrolidone is used as the liquid carrier for prodiamine, concentrations of 50 wt. % or more can be easily achieved by heating and gentle mixing. For convenience, however, concentrations on the order of 10 to 50 wt. %, and especially about 30 to 40 wt. %, are appropriate.
A mixture of 37.6 wt. % Prodiamine Technical Grade Herbicide (94.8% active) obtained from SipCam Aro USA of Roswell, Ga., and 62.4 wt. % M-Pyrol (N-methyl pyrrolidone) solvent obtained from ISP Technologies, Inc., of Wayne, N.J., was heated to about 75° C. (about 165° F.) with mechanical stirring until the prodiamine completely dissolved. The composition so obtained was then allowed to cool to ambient and then sprayed onto a moving bed of particulate fertilizer composed of a mixture of different fertilizer ingredients having particle sizes ranging from 4.75 to 1.18 mm, a combined bulk density of 0.92 gms/cc and containing about 24% nitrogen, 5% phosphorous and 11% potassium, measured as units of total nitrogen (N), available phosphate (P2O5) and soluble potash (K2O).

Each structure is given as a SMILES string.

Data on two molecules can be found in US20050113253A1, “Fertilizer” (priority 2003, published 2005).

On to `CN1CCCC1=O` [N-methyl pyrrolidone], for which, in data set [1], the flash point was about 86 °C.
As to `CCCN(CCC)c1c([N+](=O)[O-])cc(C(F)(F)F)c(N)c1[N+](=O)[O-]` [prodiamine, 2,4-dinitro-N^3,N^3-di-n-propyl-6-(trfluoromethyl)-1,3-benzenediamine], the “concentration achievable (dissolved) in N-methyl pyrrolidone” value in data set [2] was at least 50 wt. %.
